The text below walks through data of patent US20230272479A1, “BIOMARKER BASED PATIENT SELECTION FOR PROTEASOME INHIBITOR TREATMENT” (University of Utah Research Foundation, priority 2020, published 2023).

Residues, ends and D or L forms follow the SMILES beside them. *: point of attachment. Cbz = O=C(OCc1ccccc1)*; CH2F = FC*

Experiment [1] concerns Del10q23 cells (RPMI7951). Kind of experiment: Apoptosis by Western blot of whole cell lysate after bortezomib. The conditions noted are these: RPMI7951, 10 nM, 8 hr. The experiment is classed as cell-based. Here is the method:
(§1) FIGS. 4A-4K show ATAD1 protects cells from apoptosis induced by proteasome dysfunction. (A) Viability of SW1088 cells transduced with EV or ATAD1-FLAG and treated for 24 hr with indicated drugs (B) Time-course of viability in response to bortezomib treatment in SW1088 cells (C) Western blot of RPMI7951 whole cell lysate treated with 10 nM bortezomib for 8 hr (D) Quantification of C (E) Viability of ATAD1-null vs. re-expressing RPMI7951 cells in response to 16 hr treatment with BTZ and the pan-caspase inhibitor, zVAD-FMK (20 μM) or DMSO (zVAD vehicle) (F) Same as E, but viability was measured by crystal violet staining and quantified in (G). (H) Schematic describing the role of ATAD1 in proteasome inhibitor toxicity (I) Tumor size of subcutaneous xenografts of SW1088 cells in NOD/SCID mice over time (J) Incidence of palpable tumors, or tumor-free survival, over time (K) Proliferation of cultured SW1088 cells as measured with crystal violet staining, n=2 independent experiments. † represents P<0.0001
Whole cell lysates were prepared by scraping cells directly into RIPA buffer supplemented with protease and phosphatase inhibitors (Sigma Aldrich P8340, Roche Molecular 04906845001), incubated on ice for 30 minutes with vortexing every 10 min, and then spun at 16,000 g for 10 minutes at 4° C. to remove insoluble material. Supernatant was saved as lysate. […]

Another experiment has as its system PC3 cells. Kind of experiment: Viability of PC3 cells with ATAD1 deletion or overexpression treated with bortezomib. The experiment is classed as cell-based. Here is the method: (§2) FIGS. 8A-8I show restoring ATAD1 expression in Del(10q23) cells increases resistance to proteasome inhibitors. (A) RPMI7951 cells were treated for 16 hr with bortezomib or carfilzomib and viability was measured by Cell Titer Glo. (B) Time-course of RPMI7951 cells treated with bortezomib (3.125 nM) n=3 biological replicates (C) SW1088 cells were cultured in 5 nM bortezomib for 48 hr and RPMI7951 cells were cultured for 24 hr and viability was assessed by crystal violet staining (D) H4 cells were treated with bortezomib for 24 hr and assessed by Cell Titer Glo (E) ATAD1 addback rescues mitochondrial morphology phenotype in response to bortezomib in SW1088 cells. Cells were treated with BTZ (10 nM) for 12 hr and stained with MitoTracker Red, then imaged on a widefield fluorescence microscope (F) Expression of ATAD1 in DepMap cell lines, highlighting PC3 cells (ATAD1 hemizygous), and two Del10q23 cell lines (G) Generation of ATAD1-deficient, polyclonal PC3 cells using stable expression of sgATAD1 (in LCv2G), with untargeted Cas9 only as a control (LCv2G) (H) Deletion of ATAD1 increases sensitivity to bortezomib in PC3 cells. […]
Viability was determined by Cell Titer Glo (Promega) according to the manufacturer's recommendation, with some modifications. […] Luminescence was measured using a Biotek Synergy Neo2 microplate reader. […]

Experiment [2] has as its system Del10q23 cells (SW1088 and H4 glioma and RPMI7951 melanoma). Kind of experiment: Viability of Del10q23 cells treated with proteasome inhibitors (Cell Titer Glo, crystal violet). The experiment is classed as cell-based. The procedure:
as §1, §2
Viability was determined by Cell Titer Glo (Promega) according to the manufacturer's recommendation, with some modifications. […] Luminescence was measured using a Biotek Synergy Neo2 microplate reader. Luminescence values were normalized on each plate to untreated cells on the same plate, and expressed as percent.
Cells cultured in 12 or 6 well plates were washed twice with PBS then fixed with 4% paraformaldehyde (Sigma Aldrich) for 30 minutes at room temperature. […] Absorbance was measured at 590 nm using a Biotek Synergy Neo2 microplate reader, and values were normalized to those from untreated cells of the same genotype on each plate.

Another experiment deals with H4 glioma cells. Kind of experiment: BH3 profiling (cytochrome C release / MOMP) in permeabilized H4 glioma cells. The settings on record: compared across ATAD1 status. The experiment is classed as cell-based. The procedure: Cells were treated with doxycycline (250 ng/mL) for 24 hr (F) Co-immunoprecipitation of ATAD1-FLAG/HA and GFP-BIMEL in cells stably expressing ATAD1-FLAG or EV and transiently transfected overnight with GFP-BIMEL in the presence of zVAD-fmk (G) RPMI7951 cells were treated with MG132 (10 μM) for 4 hr, whole-cell lysates were prepped and analyzed by Western blot. (H) Schematic of reconstituted proteoliposome extraction assay (I) Extraction assay using His-ATAD1 and 3×FLAG-BIML (lanes 1-4, 9-20) or the negative control TA protein, 3×FLAG-Fis1 (lanes 5-8); GST-tagged SGTA and calmodulin (CaM) are included as chaperones to catch extracted TA protein. “I”=Input, “FT”=flow-through, “W”=final wash, “E”=elution. Eluted fractions represent TA proteins extracted by ATAD1 and bound by GST-tagged chaperones; compare elution “E” to input “I”. † denotes P<0.0001
To gain insight into how loss of ATAD1 affects apoptotic priming, BH3 profiling was conducted (33). Here, permeabilized cells are treated with BH3 peptides derived from different pro-apoptotic BH3-only proteins, and mitochondrial outer membrane permeability (MOMP) is directly measured by detecting cytochrome C release from mitochondria (FIG. 3A). […] This priming reflects a change in how the cell regulates the endogenous BIM protein. […]

For another experiment, the system named is RPMI7951 cells. Nature of the experiment: Viability of ATAD1-null vs. re-expressing RPMI7951 cells with BTZ and pan-caspase inhibitor. The class given is cell-based. The conditions noted are these: 16 hr BTZ, zVAD-FMK 20 μM. The procedure:
as §1
Viability was determined by Cell Titer Glo (Promega) according to the manufacturer's recommendation, with some modifications. […] Luminescence was measured using a Biotek Synergy Neo2 microplate reader. Luminescence values were normalized on each plate to untreated cells on the same plate, and expressed as percent. […]

A further experiment concerns Jurkat cells. Nature of the experiment: Viability of WT or ATAD1Δ Jurkat cells after treatment with MCL1 inhibitor. The conditions noted are these: ATAD1Δ vs WT Jurkat cells, 24 hr treatment. The class given is cell-based, human. The procedure: FIGS. 2A-2G show genome-wide CRISPR screens identify genetic interactions with ATAD1 (A) Schematic of CRISPR screening strategy (B) Generation of clonal ATAD1 knockout in a PTEN-null genetic background of Jurkat cells and proliferation rate of ATAD1Δ and WT Jurkat cells in RPMI1640 media (C) Volcano plot of CRISPR screening results; CRISPR scores were defined as the mean Log2 fold-change of sgRNAs targeting a given gene. Differential CRISPR scores (dCS) were calculated by subtracting the WT CS from the ATAD1Δ CS. dCS combined is the sum of dCS values for each clone. P-values were calculated for each gene using Kolmogorov-Smirnov with Benjamini Hochberg correction and Fisher's Method for P value meta-analysis. Dashed lines demarcate dCS<−2 and Padj<0.05 (D) DepMap data showing correlation of MARCH5 dependency and MCL1 dependency (E) Western blot of whole cell lysates from WT or ATAD1Δ Jurkat cells showing steady-state levels of BIM, MCL1, and FIS1, a non-BCL2 family control (F) Quantification of BIMEL levels in ATAD1Δ cells; n=6 independent experiments (G) Viability of WT or ATAD1Δ Jurkat cells after 24 hr treatment with the MCL1 inhibitor, AMG176.
Thus, like MARCH5, ATAD1 modulates members the BCL2 family and affects apoptotic priming as measured by sensitivity to a BH3-mimetic. […]

The mark [3] stands for this setting: Del10q23 cells (ATAD1-null, EV).
[4] abbreviates: Del10q23 cells with expression of ATAD1.

On to `CC(C)C[C@H](NC(=O)[C@H](Cc1ccccc1)NC(=O)c1cnccn1)B(O)O` [bortezomib], for which the apoptosis result is recorded as “only minimally” in experiment [1] (ATAD1 re-expressing cells) and “robust apoptosis” in experiment [1] (Del10q23-EV cells). For the same compound, the “sensitivity (viability)” value with PC3 cells (deletion of the remaining allele of ATAD1) is on record as “sensitized to bortezomib”. In addition, the “resistance (viability)” value with PC3 cells (overexpression of ATAD1 (not ATAD1E193Q)) is recorded as “increased resistance to bortezomib”. Further, the loss of viability entry is “potently and rapidly induced a loss of viability” in experiment [2] (setting [3]); “mitigated by expression of ATAD1” in experiment [2] (setting [4]).
With `CC(=O)NC(C)(C)C(=O)N1CCC[C@H]1C(=O)NC(C)(C)C(=O)N[C@@H](C)C(=O)NC(C)(C)C(=O)N[C@@H](C)C(=O)N[C@@H](CCC(N)=O)C(=O)NC(C)(C)C(=O)N[C@H](C(=O)NC(C)(C)C(=O)NCC(=O)N[C@@H](CC(C)C)C(=O)NC(C)(C)C(=O)N1CCC[C@H]1C(=O)N[C@H](C(=O)NC(C)(C)C(=O)NC(C)(C)C(=O)N[C@@H](CCC(=O)O)C(=O)N[C@@H](CCC(N)=O)C(=O)N[C@H](CO)Cc1ccccc1)C(C)C)C(C)C` [Alamethicin] (HELM PEPTIDE1{[ac].[Aib].P.[Aib].A.[Aib].A.Q.[Aib].V.[Aib].G.L.[Aib].P.V.[Aib].[Aib].E.Q.[OC[C@H](Cc1ccccc1)N[*:1]]}$$$$V2.0), the “cytochrome C release” value in the experiment on H4 glioma cells is listed as “induced cytochrome C release equally regardless of ATAD1 status”.
Consider `COC(=O)C[C@H](NC(=O)[C@H](C)NC(=O)[C@@H](NC(=O)OCc1ccccc1)C(C)C)C(=O)CF` [zVAD] (Cbz-Val-Ala-Asp(OMe)-CH2F), for which the “effect on viability under bortezomib” value in the experiment on RPMI7951 cells is “minimal additive effect”.
Turning to `CC(C)C[C@H](NC(=O)[C@H](CCc1ccccc1)NC(=O)CN1CCOCC1)C(=O)N[C@@H](Cc1ccccc1)C(=O)N[C@@H](CC(C)C)C(=O)[C@@]1(C)CO1` [carfilzomib], the loss of viability entry in experiment [2] (setting [3]) was “potently and rapidly induced a loss of viability”; in experiment [2] (setting [4]), “mitigated by expression of ATAD1”.
Regarding `CO[C@H]1/C=C/C[C@H](C)[C@@H](C)S(=O)(=O)NC(=O)c2ccc3c(c2)N(C[C@@H]2CC[C@H]21)C[C@@]1(CCCc2cc(Cl)ccc21)CO3` [AMG176], in the experiment on Jurkat cells, the “apoptotic priming (sensitivity to BH3-mimetic, viability)” value is listed as “primed cells for apoptosis induced by AMG176”.
